Format in all cases: cell-based
Assay [1] deals with PC3 cells. The assay is described as follows: PC3 prostate cancer cell proliferation (WST). The note with it: Homo sapiens, PC-3; 72 hours; read-out: IC50 PC3 Proliferation. On the procedure:
PC3 cells were obtained from the American Type Culture Collection (ATCC, Manassas, Va., Cat.# CRL-1435) Two thousand cells from the prostate cancer line PC3 were placed in 50 μL of complete RPMI 1640 media (Invitrogen, Carlsbad, Calif., Cat.#22400-105) with 10% fetal bovine serum (Invitrogen, Carlsbad, Calif., Cat.#10438-026) into each well of 96 well cell culture plates in a hexaplicate sampling pattern. A 50 μL aliquot of test compound (prepared from stock test compounds in DMSO diluted into media) was added to the appropriate well such that the final concentrations of test compound were 200, 40, 8, 1.6, 0.32, 0.064, 0.0128, 0.00256, and 0 μM and the final DMSO concentration was less than or equal to 0.2%.
The plates were incubated for 72 hours 37° C. in an atmosphere of 5% CO2. At the end of this time a 10 μL aliquot of WST solution (Roche Applied Science, Mannheim, Germany) was added into each of the wells. Cells were exposed to the WST solution for 4 hours. A SpectraMax Plus spectrophotometric plate reader (Molecular Devices, Sunnydale, Calif.) was then used to measure the optical density at 450 nm (OD450 nm). Sigmoidal curves were drawn for the dose responses and IC50 values were calculated using the software package GraphPad Prism4 (GraphPad Software, Inc., San Diego, Calif.).

The test system of assay [2] is MCF7 breast cancer cells. The assay is described as follows: Mammosphere cancer stem cell inhibition assay. How it is done: A mammosphere cancer stem cell inhibition assay was set up using literature methods (T. M. Phillips et al. J. Natl. Cancer I. 2006, 98, 1777-1785, “Mammalian target of rapamycin contributes to the acquired apoptotic resistance of human mesothelioma multicellular spheroids”) using a subset of MCF7 breast cancer cells that posses the ability to evade anchorage independent apoptosis. Commercially available MCF7 breast cancer cells were cultured in MEM supplemented with 0.01 mg/mL of bovine insulin and 10% FBS at 37° C. in humidified atmosphere (5% CO2). Floating cells in the 2-day cultures were collected, washed, and resuspended in DMEM-F12 (50:50) supplemented with 0.4% BSA, 5 μg/mL bovine insulin, 20 ng/mL bFGF, and 10 ng/mL EGF. Cells were then passed through a […] sieve to remove any cell clusters and adjusted to a density of 10,000 cells/mL. Approximately 500 cells were plated in quadruplicate in a sterile poly-HEMA-treated 96-well plate. Cells were then treated with either control or test solutions consisting of the kinase inhibitor Lapatinib (1 μM), Cpd 28 (1 or 10 μM), Cpd 55 (1 or 10 μM), The numbers of mammospheres (clusters of cells numbering more than 4 or 5 per cluster) were then counted after 5-7 days.

In assay [3] the test system is AKT Ser473 phosphorylation in renal cell carcinoma (786-O) Cell Line. The assay is described as follows: pAKT Ser473 ELISA in 786-O cells stimulated by Bv8, VEGF, IGF. The note with it: Homo sapiens, 786-0, 786-O, read-out: Concentration Required to Inhibit pAKT to Half-maximal Levels. How it is done: (§1) This was followed by the addition of IGF, VEGF and Bv8 to 0.1 μg/mL, 0.1 μg/mL and 2.5 μg/mL respectively for another 30 minutes before harvesting the cells and making cell lysates with RIPA buffer keeping on ice, pAKT levels were measured in duplicate samples with Cell Signaling's Ser473 pAKT ELISA kit. Optical density plate readings of pAKT levels were made at 450 nm (OD450 nm) and were normalized by total protein amount of the cell lysates. The dose of compound at which pAKT levels are reduced to 50% of the non-treatment level was calculated using GraphPad Prism4 software and is listed in Tables 4 and 5 below.
In general terms: ELISA stands for enzyme-linked immunosorbent assay.

Assay [4] relates to AKT Ser473 phosphorylation in PC3 (prostate cancer) Cell Line. The assay is described as follows: pAKT Ser473 ELISA in PC3 cells stimulated by Bv8, VEGF, IGF. The note with it: Homo sapiens, PC-3, PC3, read-out: Concentration Required to Inhibit pAKT to Half-maximal Levels. On the procedure: as §1
In assay [5] the test system is 786-0 cells. The assay is described as follows: Apoptosis in 786-0 cells (Annexin V / PI flow cytometry). Also on record: unit not given here. Conditions: 200 ng/mL. On the procedure: In order to evaluate the mechanism of action of these compounds, 786-0 cell cultures were treated with Cpd 9 or Cpd 28 at different concentrations overnight and then analyzed for apoptotic induction. The cells were stained using standard methods with Annexin V and/or Propedium iodine (PI) at room temperature for 15 minutes. Apoptotic cells at early (Annexin V positive) or late stage (both Annexin V and PI positive) were detected by Flow Cytometry.
Background: A flow cytometer gives signals particle by particle.

The mark [6] stands for this setting: 1 μM, separate experiment, control 32±6.
Where [7] appears, read: 10 μM, separate experiment, control 32±6.

Where two headings read alike, the source gives them in different places. Starred links: 1 amine or outer side, 2 acyl side, 3 side chain; linkers in the order of their positions; H or OH if unused. Positions of bridges follow the written chain, without caps; N, C: chain ends. Non-standard residues stand in square brackets, D forms with d. Residues, ends and D or L forms follow the SMILES beside them. Chains are numbered I, II in the order given. Actinocin(9to1) = Cc1c2oc3c(C)ccc(C(=O)[*:1])c3nc-2c(C(=O)[*:2])c(N)c1=O; NMeV = CN[C@H](C(=O)O)C(C)C; Sar = CNCC(=O)O

Take `CN1CCN(c2ncc(-c3csc4c(=O)cc(N5CCOCC5)oc34)cn2)CC1` [Compound 43]: in assay [1], the IC50 worked out at 9.35 µM. In addition, the “inhibition of mammosphere production versus control” value in assay [2] (1 μM, separate experiment) is approximately 53%; in assay [2] (10 μM, separate experiment), approximately 58%. Besides, the values for the number of mammospheres in assay [2] (setting [6]) and in assay [2] (setting [7]) were 18±6 mammospheres and 16±6 mammospheres, respectively.

As to `CCOC(=O)c1ccc(-c2csc3c(=O)cc(N4CCOCC4)oc23)cc1` [Compound 25], the IC50 was 1.23 to 3.14 µM in assay [1]; 0.699 µM in assay [3] (stimulant Bv8); 4.39 µM in assay [3] (stimulant IGF); 0.918 µM in assay [3] (stimulant PBS); 0.498 µM in assay [3] (stimulant VEGF); 0.941 µM in assay [4] (stimulant Bv8). The IC50 is 2.12 µM in assay [4] (stimulant IGF), 0.564 µM in assay [4] (stimulant PBS) and 0.332 µM in assay [4] (stimulant VEGF). The “inhibition of mammosphere production versus control” value in assay [2] (1 μM, separate experiment) was “approximately 69%”; in assay [2] (10 μM, separate experiment), “approximately 82%”. The figures for the number of mammospheres in assay [2] (setting [6]) and in assay [2] (setting [7]) were 12±3 mammospheres and 7±2 mammospheres, respectively.

On to `O=c1cc(N2CCOCC2)oc2c(-c3ccsc3)csc12` [Compound 26], for which the IC50 in assay [1] is 5.6 µM.

As for `O=C(NCc1ccccc1)c1csc2c(=O)cc(N3CCOCC3)oc12` [Compound 53], the IC50 in assay [1] came out at 113 µM. On the same count and under the same terms, in the case of `CCN(CC)C(=O)c1csc2c(=O)cc(N3CCOCC3)oc12` [Compound 52] it was 157 µM. In the case of `O=C(Nc1ccc(-c2csc3c(=O)cc(N4CCOCC4)oc23)cc1)c1ccccc1` [Compound 34], the IC50 in assay [1] came out at 2 µM. In the case of `O=C(NCc1ccccc1)c1ccc(-c2csc3c(=O)cc(N4CCOCC4)oc23)cc1` [Compound 50, N-benzyl-4-(5-morpholino-7-oxo-7H-thieno[3,2-b]pyran-3-yl)benzamide], the IC50 in assay [1] was 4.76 µM.

In the case of `O=c1cc(N2CCOCC2)oc2c(-c3cccs3)csc12` [Compound 14], the IC50 in assay [1] came to 4.36 µM. Take `O=c1cc(N2CCOCC2)oc2c(-c3ccco3)csc12` [Compound 4]: the IC50 in assay [1] was found to be 5.9 µM. On the same count and under the same terms, under `O=c1cc(N2CCOCC2)oc2c(C#Cc3cccc(F)c3)csc12` [Compound 39] stands 3.31 µM; under `O=C(Nc1cccnc1)c1ccc(-c2csc3c(=O)cc(N4CCOCC4)oc23)cc1` [Compound 58], 16.7 µM; under `O=c1cc(N2CCOCC2)oc2c(-c3ccc4cc[nH]c4c3)csc12` [Compound 35], 2.7 to 5.59 µM. Same read-out and setting: in the case of `O=c1cc(N2CCOCC2)oc2c(C#CCO)csc12` [Compound 24] it was 28.2 µM; in that of `O=c1cc(N2CCOCC2)oc2c(-c3ccc4[nH]ccc4c3)csc12` [Compound 19], 8.13 µM; in that of `O=c1cc(N2CCOCC2)oc2c(-c3ccc4c(c3)OCO4)csc12` [Compound 7], 1.74 µM. On to `O=c1cc(N2CCOCC2)oc2c(Cc3ccccc3)csc12` [Compound 1], for which the IC50 in assay [1] was 20.2 µM. Still for that read-out and setting: under `Nc1cccc(C#Cc2csc3c(=O)cc(N4CCOCC4)oc23)c1` [Compound 96] stands 24.8 µM; under `O=c1cc(N2CCOCC2)oc2c(-c3ccc(C(F)(F)F)cc3)csc12` [Compound 20], 774 µM; under `O=C(NCc1ccccc1)c1cccc(-c2csc3c(=O)cc(N4CCOCC4)oc23)c1` [Compound 63], 7.84 µM.

Consider `O=C(Nc1ccncc1)c1ccc(-c2csc3c(=O)cc(N4CCOCC4)oc23)cc1` [Compound 59], for which the IC50 in assay [1] was determined as 17.5 µM.

On to `CN1CCOc2cc(-c3csc4c(=O)cc(N5CCOCC5)oc34)ccc21` [Compound 22], for which the IC50 in assay [1] was determined as 1.05 µM. Regarding `Cc1c2oc3c(C)ccc(C(=O)N[C@@H]4C(=O)N[C@H](C(C)C)C(=O)N5CCC[C@H]5C(=O)N(C)CC(=O)N(C)[C@@H](C(C)C)C(=O)O[C@@H]4C)c3nc-2c(C(=O)N[C@@H]2C(=O)N[C@H](C(C)C)C(=O)N3CCC[C@H]3C(=O)N(C)CC(=O)N(C)[C@@H](C(C)C)C(=O)O[C@@H]2C)c(N)c1=O` [Actinomycin D, reference compound] (I: T[dV]P[Sar][NMeV] / II: T[dV]P[Sar][NMeV]; ester I:1-I:C, II:1-II:C; linker I:N-II:N via Actinocin(9to1)), in assay [5], the “Early stage apoptotic cells” value is recorded as 16.93, the “Late stage apoptotic cells” value is given as 12.63 and the “Total Apoptotic Cells” value turned out to be 29.56. As to `O=C(Nc1ccccn1)c1ccc(-c2csc3c(=O)cc(N4CCOCC4)oc23)cc1` [Compound 61], the IC50 in assay [1] was found to be 5 µM. Take `O=C(Nc1ccncc1)c1cccc(-c2csc3c(=O)cc(N4CCOCC4)oc23)c1` [Compound 64]: in assay [1], the IC50 stood at 17.9 µM. For the molecule `COC(=O)c1scc(-c2csc3c(=O)cc(N4CCOCC4)oc23)c1O` [Compound 21, methyl 3-hydroxy-4-(5-morpholino-7-oxo-7H-thieno[3,2-b]pyran-3-yl)thiophene-2-carboxylate], in assay [1], the IC50 stood at 34.8 µM. Take `O=c1cc(N2CCOCC2)oc2c(-c3cccc(C(F)(F)F)c3)csc12` [Compound 92]: the IC50 in assay [1] came to 6.28 µM. Still for that read-out and setting: under `O=c1cc(N2CCOCC2)oc2c(-c3ccc(Cl)cc3)csc12` [Compound 17, 3-(4-chlorophenyl)-5-morpholino-7H-thieno[3,2-b]pyran-7-one] stands 29 µM; under `O=c1cc(N2CCOCC2)oc2c(C#Cc3ccccc3)csc12` [Compound 31, 5-morpholino-3-(phenylethynyl)-7H-thieno[3,2-b]pyran-7-one], 3.69 µM.

Turning to `COC(=O)c1ccc(-c2csc3c(=O)cc(N4CCOCC4)oc23)cc1` [Compound 44], the IC50 in assay [1] is 4.39 µM. In the case of `O=c1cc(N2CCOCC2)oc2c(-c3ccc(Br)cc3)csc12` [Compound 101], in assay [1], the IC50 worked out at 21.8 µM. As to `O=C(Nc1ccc(-c2csc3c(=O)cc(N4CCOCC4)oc23)cc1)c1cccnc1` [Compound 55], the IC50 in assay [1] lay within 1.05 to 1.5 µM. Moreover, the “inhibition of mammosphere production versus control” value in assay [2] (1 μM, first experiment) is on record as “approximately 60%”; in assay [2] (10 μM, first experiment) it was approximately 86%. Further, the number of mammospheres in assay [2] (1 μM, first experiment, control 38±4) was determined as 16±2 mammospheres; in assay [2] (10 μM, first experiment, control 38±4), 5±1 mammospheres.

On to `Cc1cccc(-c2csc3c(=O)cc(N4CCOCC4)oc23)c1` [Compound 16], for which, in assay [1], the IC50 turned out to be 6.03 µM.

Consider `S=c1cc(N2CCOCC2)oc2c(-c3ccccc3)cccc12` [Compound 68, 2-morpholino-8-phenyl-4H-chromene-4-thione], for which, in assay [1], the IC50 was 34.8 µM.

These data come from patent US9981983B2, “Thienopyranones as kinase inhibitors” (SignalRx Pharmaceuticals, Inc., priority 2008, dated 2018).
